Measurements: patent publication US20210030908A1 (priority 2013, published 2021)
Like-named read-outs stand apart in the source and are kept apart here.

What was measured:
[1] = test system: Bacillus atrophaeus spore strip; assay type: cell-based; conditions: for Sterilization (6-log reduction of Bacillus atrophaeus), Exposure Time 5 Minutes (CT = 250): 3,000 ppmv ClO2 in air, 700 feet/sec, nozzle 2.54 cm from target, CT in ppmv-hrs, per sample replicate
anthrax spores = conditions: gas or vapor phase application, prior art; cited from earlier work
mold spores = conditions: time averaged concentration about 500 to 1500 ppmv over a 12 hour period, prior art; cited from earlier work

[O][Cl+][O-] [chlorine dioxide]
Sterilization (6-log reduction of Bacillus atrophaeus), Exposure Time 5 Minutes (CT = 250) ([1]; Group 1 spore strips, pre-humidified for one hour at about 75 degrees F.): − (“−” indicates at least a 6-log reduction of Bacillus atrophaeus)
Sterilization (6-log reduction of Bacillus atrophaeus), Exposure Time 5 Minutes (CT = 250) ([1]; Group 2 spore strips, no pre-humidification prior to test): − (“−” indicates at least a 6-log reduction of Bacillus atrophaeus)
Oxidation of the target ([1]; every test (all exposure times, with and without pre-humidification)): every test resulted in oxidation of the target
Sterilization outcome ([1]; no pre-humidification, exposure times of 30 seconds, 1 minute, and 2 minutes, at CT's of 25, 50, and 100): some sterilization
Sterilization outcome ([1]; no pre-humidification, exposure times of at least 5 minutes at a CT of 250): successful sterilization of all targets
Applications resulting in successful sterilization ([1]; pre-humidified application zones, 30 seconds at a CT of 25): 75%
Sterilization outcome ([1]; pre-humidified application zones, exposure times greater than or equal to 1 minute, CT greater than or equal to 50): successful sterilization of the targets for all applications
CT found effective for sterilizing anthrax spores (anthrax spores): 9000 ppmv-hrs
CT found effective for killing mold spores and eliminating allergenic effects (mold spores): 6000-18000 ppmv-hrs
